Test results from patent US7875586B2 (priority 2002, dated 2011).
“Also recorded” adds a separate entry of the source. Peptide text beside a SMILES is read from it. * marks the point of attachment. Cbz = O=C(OCc1ccccc1)*; CH2F = FC*

Key:
Format in all cases: cell-based, human
Caco-2 cells [1] = system: Caco-2 cells
T-84 cells = system: T-84 cells
living Caco-2 cells = system: living Caco-2 cells
Caco-2 cells [2] = system: Caco-2 cells; remark: listed apart in the source

## CCCCCCCCCCCCCCCC(=O)NC(CN1CCOCC1)C(O)c1ccccc1 (stereo not drawn) [PPMP, threo-1-phenyl-2-palmitoylamino-3-morpholino-1-propanol]
Caco-2 cells [1]
  Subpopulation of Gb3 enriched cells with filopodia on the leading edge: completely eliminated
T-84 cells
  Subpopulation of Gb3 enriched cells with filopodia on the leading edge: completely eliminated

## C[C@@H](N)[C@H]1CC[C@H](C(=O)Nc2ccncc2)CC1 [Y-27632]
Living Caco-2 cells
  Cell morphology: pronounced effects
  Filopodia and filopodia-mediated cell-cell contacts: did not change

## COC(=O)C[C@H](NC(=O)[C@H](C)NC(=O)[C@@H](NC(=O)OCc1ccccc1)C(C)C)C(=O)CF [z-VAD-fink] (Cbz-Val-Ala-Asp(OMe)-CH2F)
Caco-2 cells [2]
  Effect of caspase inhibition on DNA fragmentation caused by Stx1B: decreased DNA fragmentation; also recorded: Inhibition of apoptotic DNA fragmentation
